Source: US7390783B2, “Charged phospholipid compositions and methods for their use” (Ottawa Heart Institute Research Corporation, priority 2000, dated 2008)
“Also recorded” adds a separate entry of the source.

Assays:
HEPG2 cells = assay: Cellular cholesterol uptake from PI-enriched plasma or lipoproteins; format: cell-based
Description: Almost complete inhibition of the enzyme that produces CE parallelled major increases in the amount of this lipid in VLDL particles. […] Cholesterol transport into VLDL may instead be governed by the charge and structural characteristics of plasma lipoproteins, which may regulate interfacial interactions with specific receptors and cholesterol storage depots on cell surfaces. […] Without wishing to be limited by theory, it is considered that the enhanced uptake of cholesterol from PI-enriched HDL is not facilitated by a scavenger receptor-BI mediated pathway but is associated with a novel protein kinase C dependent uptake pathway. Therefore, it is considered that control of lipoprotein charge by the administration of charged compounds will allow for the manipulation of FC and CE influx/efflux from cell surfaces and the selective control of plasma cholesterol metabolism.

[^3H]-FC in plasma = Clearance of [^3H]-FC from the blood of a rabbit; format: in vivo
Experimental: (§1) 1-palmitoyl-2-oleoyl-phosphatidylcholine (PC) and 1-palmitoyl-2-oleoyl phosphatidylinositol (PI) vesicles are prepared by drying to completion 40 μmol of each lipid into a 12×75 mm culture tube under N2. The lipids are solubilized in 3 mL of sterile saline comprising 150 mM sodium chloride (pH 7.2) by sonication for 1 minute at constant duty cycle. The vesicles are incubated at 37° C. for 10 minutes and then sonicated at a high output for 4 minutes in 10° C. water bath under N2. In order to determine the rate of clearance of cholesterol from the test animals (rabbits), a radioactive tracer is added to the vesicle preparations prior to injection into the rabbit. 200 μL of 1 μCi/μmL [^3H]-FC is dried into a 12×75 mm culture tube with 40 μmol of PI or POPC. 3 ml of PBS is added to the dried lipids and the mixture is sonicated as described above. This tracer/vesicle preparation is injected and then 5 min later, the PI or PC vesicles were injected and blood is sampled as described below.
(§2) Male New Zealand white rabbits (3.5-4.0 kg) are fasted for 12 hours prior to injection and remain fasted until after data for the final time point is taken. Rabbits have free access to water during this time. A catheter is inserted into the marginal ear vein and blood samples are collected into tubes containing 7.5% (K3) EDTA solution at the desired time points. A pre-injection blood sample is taken and the vesicle solution of either PI (n=4), or PC (n=2) or saline (n=1) is injected into the marginal ear vein. A sample of blood is removed at 10, 30 min, 1, 3, 6 and 24 h after the injection. All blood samples are placed on ice and then centrifuged at 3000 rpm for 15 min at 4° C. to separate the plasma. In order to ensure that lecithin:cholesterol acyl transferase (LCAT) is inhibited in the stored plasma, iodoacetamide (150 mM) is added to plasma samples as taught by Guerin et al. (1994).
Referring now to FIG. 5, there is shown the clearance of [^3H]-FC at various times after rabbits are injected with [^3H]-FC and either PI or PC vesicles. […] In comparison, rabbits injected with PC contain approximately 90% of the injected radioactivity after 1 h.

HDL, LDL and VLDL = assay: Lipoprotein surface charge after injection of PI or PC vesicles into rabbits (agarose gel electrophoresis); format: in vivo, rabbit
Experimental: as §1, §2
Lipoprotein fractions are isolated by sequential ultracentrifugation (VLDL+IDL, d<1.019 g/mL; LDL, d=1.019-1.063 g/mL; and HDL, d=1.063-1.21 g/mL) as known to one of skill in the art, and lipoprotein lipid composition (total cholesterol, free cholesterol (FC), and triglyceride (TG) concentrations) are determined enzymatically using kits from Roche Diagnostic (Laval, PQ). An aliquot of each lipoprotein isolated is dialysed into PBS and its surface charge characteristics were determined by electrophoresis on pre-cast 0.5% agarose gels using the procedure of Sparks and Phillips (1992).
Referring now to FIG. 1, there is illustrated the effect of injection of PI and PC vesicles on the estimated surface potential of HDL, LDL, and VLDL proteins in vivo. […] PC, which is a neutral phospholipid, may also bind to the lipoproteins. However since PC is a neutral phospholipid, no significant change in the migration of the lipoproteins is observed. The increased migratory property of lipoproteins in a gel peaks following injection of PI and returns to normal by about 24 hours. […] Similarly, the VLDL fraction is estimated to have an initial surface potential of about −8.8 mV, which increases to about −11.2 mV after 10 minutes. LDL is estimated to have an initial surface potential of about −3.9 mV, and peaks about 60 min after the PI injection at about −8.0 mV.

[1] = system: VLDL, LDL and HDL in human plasma; assay: Lipoprotein charge in human plasma incubated with PI or DOTAP vesicles; format: biochemical; details: 24 h at 4° C.; for Lipoprotein Surface Charge LDL: no lipid 2.5; for Lipoprotein Surface Charge VLDL: no lipid 5.5; for Lipoprotein Surface Charge HDL: no lipid 11.8
Experimental: Different concentrations as shown below of negatively charged phospholipid (PI) or positively charged phospholipid (DOTAP) were added to human plasma and the surface charge on the lipoproteins was determined. The human plasma was incubated with PI or dioleoyl trimethylammonium-propane (DOTAP) vesicles for 24 h at 4° C. and then electrophoresed on 0.5% agarose. Lipoprotein charge was calculated from electrokinetic analyses.

[2] = system: cholesterol associated with HDL, LDL and VLDL; assay: Incubation of plasma with PI: lipoprotein cholesterol levels; format: biochemical, human; details: added to blood plasma of fasted normolipidemic subject
Experimental: Referring now to FIG. 2, there is graphically depicted the effect of incubations with PI on the amount of cholesterol associated with HDL (high density lipoprotein), LDL (low density lipoprotein) and VLDL (very low density lipoproteins) following isolation of lipoproteins from plasma of fasted normolipidemic subjects. […] This appears due to the electrostatic effects, that increased lipoprotein PI concentrations have on cholesteryl ester transfer protein. Previous work has shown that this protein controls interlipoprotein cholesterol transfers and is affected by lipoprotein charge (Lagrost 1997).

Q: What does the source list for `CCCCCCCC/C=C\CCCCCCCC(=O)O[C@H](COC(=O)CCCCCCCCCCCCCCC)COP(=O)(O)O[C@@H]1[C@H](O)[C@H](O)[C@@H](O)[C@H](O)[C@H]1O` [PI, 1-palmitoyl-2-oleoyl phosphatidylinositol]?
A: effect on cellular cholesterol uptake, PI enrichment of LDL (HEPG2 cells): does not; effect on cellular cholesterol uptake, PI-enrichment of plasma or HDL (HEPG2 cells): stimulates cellular cholesterol uptake; [^3H]-FC in plasma, of the initial dose ([^3H]-FC in plasma; after about 1 h): about 15%; half-life of [^3H]-FC shorter than for PC injected rabbits ([^3H]-FC in plasma; rabbit, in vivo): about 30 fold; HDL surface potential, peak negative charge (HDL, LDL and VLDL; about 10 minutes after injection, background about −12.2 mV prior to injection, estimated from gel migration): about −18.0 mV; LDL surface potential, peak (HDL, LDL and VLDL; about 60 min after injection, initial about −3.9 mV, estimated): about −8.0 mV; VLDL surface potential (HDL, LDL and VLDL; after 10 minutes, initial about −8.8 mV, estimated): about −11.2 mV; time for increased lipoprotein migration to return to normal (HDL, LDL and VLDL; after injection): about 24 hours; effect on lipoprotein net negative surface charge / migration of HDL, LDL and VLDL into agarose gel (HDL, LDL and VLDL; intravenous injection of vesicles, fasted rabbit): significant increase; also recorded: increased migration of all lipoprotein fractions; Lipoprotein Surface Charge LDL ([1]; 5 mg/ml): 2.9 -mV; Lipoprotein Surface Charge VLDL ([1]; 5 mg/ml): 6.3 -mV; Lipoprotein Surface Charge HDL ([1]; 5 mg/ml): 12.4 -mV; Lipoprotein Surface Charge LDL ([1]; 10 mg/ml): 3.3 -mV; Lipoprotein Surface Charge VLDL ([1]; 10 mg/ml): 6.8 -mV; Lipoprotein Surface Charge HDL ([1]; 10 mg/ml): 12.8 -mV; Lipoprotein Surface Charge LDL ([1]; 50 mg/ml): 3.4 -mV; Lipoprotein Surface Charge VLDL ([1]; 50 mg/ml): 6.9 -mV; Lipoprotein Surface Charge HDL ([1]; 50 mg/ml): 13.2 -mV; Lipoprotein Surface Charge LDL ([1]; 100 mg/ml): 3.6 -mV; Lipoprotein Surface Charge VLDL ([1]; 100 mg/ml): 7.1 -mV; Lipoprotein Surface Charge HDL ([1]; 100 mg/ml): 13.4 -mV; effect on cholesterol in LDL, VLDL and HDL [2]: reduction of cholesterol in LDL and VLDL and increase in HDL cholesterol levels
